Source: PMC6151740, “Pharmacokinetics, Tissue Distribution, and Elimination of Three Active Alkaloids in Rats after Oral Administration of the Effective Fraction of Alkaloids from Ramulus Mori, an Innovative Hypoglycemic Agent” (Molecules : A Journal of Synthetic Chemistry and Natural …, 2017)
Where two headings read alike, the source gives them in different places.

Test: Plasma pharmacokinetic study in rats after oral and intravenous administration of SZ–A or purified DNJ
Assay type: in vivo, rat
Conditions: for MRT last: read-out: MRT0–t; for MRT inf: read-out: MRT0–∞; for bioavailability: plasma, read-out: F (oral absolute bioavailability)
Description: The oral dosing solutions used for all animal studies were prepared by dissolving in water. Thirty rats weighed 250–270 g after acclimation were randomly divided into six groups of five animals each. For oral administration, rats were treated with SZ–A (40, 200, 1000 mg/kg) or purified DNJ (15 mg/kg) dissolve in water. Blood samples (about 0.25 mL) were collected via the postorbital venous plexus veins under ether anesthesia into heparinized polythene tubes before dosing and at 0.08, 0.17, 0.33, 0.50, 1, 2, 3, 4, 6, 8, 12, 24 and 36 h after drug administration. For intravenous dosing, rats were given SZ–A (4 mg/kg) or DNJ (1.5 mg/kg) dissolved in normal saline solution through the tail vein. Then blood samples were collected at 0.03, 0.08, 0.17, 0.33, 0.67, 1, 2, 4, 6, 8, 12, 24, and 36 h under similar conditions. Considering the physical limit of blood in rats, during the process of the pharmacokinetic experiment, each rat was received 0.25 mL of sterile isotonic saline at each time point after blood sampling for compensation of body fluid loss, and the blood loss was also corrected at a definite degree. Plasma was separated by centrifuging the blood samples at 1660× g for 5 min and stored at −20 °C until LC-MS/MS analysis. Data fitting and pharmacokinetic parameter estimates were carried out using non–compartmental analysis via WinNonlin Software (version 6.1, Pharsight Corporation, Mountain View, CA, USA). F was calculated according to the formula: F (%) = (AUC oral/AUC i.v.) × (dose i.v./dose oral) × 100.
The plasma, feces, urine, and bile samples (100 μL) were added to 1 μL of Tris aqueous solution (2 M), 10 μL of IS working solution (2 μg/mL), and 190 μL methanol–acetonitrile (25:75, v/v). The incubation supernatant samples (300 μL) were mixed with 1 μL Tris aqueous solution (2 M) and 10 μL of IS working solution (2 μg/mL). All mixtures were vortexed for 30 s followed by centrifugation at 18,880× g for 5 min, twice.
Briefly, the LC-MS/MS instrument consisted of a 1260 HPLC system (Agilent, Santa Clara, CA, USA) and API4000 triple quadrupole mass spectrometer (Applied Biosystems Sciex, Toronto, ON, Canada) with an electrospray ionization (ESI) source and Analyst software (version 1.5.2, Applied Biosystems Sciex, Toronto, ON, Canada) for data acquisition and processing. DNJ, FGM, DAB, and IS were separated in a Xbridge amide™ column (3.5 μm, 4.6 mm × 150 mm; Waters, Milford, MA, USA) with a gradient mobile phase of acetonitrile-water (0.1% ammonium hydroxide) at a flow rate of 0.7 mL/min. An ESI source was used in the positive ion mode. The optimized mass spectrometric condition was as follows: ion spray voltage, 5500 V; collision gas, 6 psi; curtain gas, 20 psi; ion source gas 1 (GS1), 45 psi; ion source gas 2 (GS2), 45 psi; temperature, 450 °C. The multiple reaction monitoring (MRM) transitions of DNJ, FGM, DAB, and IS were m/z 164.0→110.1 (declustering potential (DP) 50 V, collision energy (CE) 22 V, collision cell exit potential (CXP) 10 V), 148.0→112.1 (DP 66 V, CE 21 V, CXP 10 V), 134.0→98.0 (DP 60 V, CE 20 V, CXP 10 V) and 208.0→146.1 (DP 50 V, CE 27 V, CXP 10 V), respectively.

[1] = Sprague-Dawley, iv, rat plasma, SZ–A 4 mg/kg i.v., n = 5
[2] = Sprague-Dawley, po, rat plasma, SZ–A 40 mg/kg p.o., n = 5
[3] = Sprague-Dawley, po, rat plasma, SZ–A 200 mg/kg p.o., n = 5
[4] = Sprague-Dawley, po, rat plasma, SZ–A 1000 mg/kg p.o., n = 5
[5] = rat plasma, SZ–A 40 mg/kg p.o., n = 5
[6] = rat plasma, SZ–A 200 mg/kg p.o., n = 5
[7] = rat plasma, SZ–A 1000 mg/kg p.o., n = 5

Structure (SMILES): OC[C@H]1NC[C@@H](O)[C@@H]1O [DAB, 1,4-dideoxy-1,4-imino-D-arabinitol]
- AUC(0-inf) [1]: 129 ± 20.1 ng·h/mL
- AUC(0-t) [1]: 124 ± 20.8 ng·h/mL
- Cmax [1]: 625 ± 183 ng/mL
- Tmax [1]: 0.033 h
- half-life [1]: 0.18 ± 0.03 h
- clearance (Sprague-Dawley, iv, rat plasma, SZ–A 4 mg/kg i.v., n = 5, read-out: CLz (converted)): 25.6 mL/min/kg
- MRT last [1]: 0.18 ± 0.04 h
- MRT inf [1]: 0.21 ± 0.05 h
- Vd (Sprague-Dawley, iv, rat plasma, SZ–A 4 mg/kg i.v., n = 5, read-out: Vd): 0.401 ± 0.0408 L/kg
- bioavailability (Sprague-Dawley, po, rat, SZ–A 40 mg/kg p.o. vs SZ–A 4 mg/kg i.v.): 78.2%
- bioavailability (Sprague-Dawley, po, rat, SZ–A 200 mg/kg p.o. vs SZ–A 4 mg/kg i.v.): 56.6%
- bioavailability (Sprague-Dawley, po, rat, SZ–A 1000 mg/kg p.o. vs SZ–A 4 mg/kg i.v.): 40.1%
- AUC(0-inf) [2]: 978 ± 140 ng·h/mL
- AUC(0-t) [2]: 969 ± 147 ng·h/mL
- Cmax [2]: 708 ± 171 ng/mL
- Tmax [2]: 0.67 ± 0.29 h
- half-life [2]: 1.22 ± 0.16 h
- MRT last [2]: 1.32 ± 0.18 h
- MRT inf [2]: 1.42 ± 0.25 h
- AUC(0-inf) [3]: 3560 ± 729 ng·h/mL
- AUC(0-t) [3]: 3510 ± 716 ng·h/mL
- Cmax [3]: 2000 ± 656 ng/mL
- Tmax [3]: 0.57 ± 0.09 h
- half-life [3]: 1.38 ± 0.23 h
- MRT last [3]: 1.95 ± 0.35 h
- MRT inf [3]: 2.09 ± 0.29 h
- AUC(0-inf) [4]: 12900 ng·h/mL
- AUC(0-t) [4]: 12400 ng·h/mL
- Tmax [4]: 0.47 ± 0.14 h
- half-life [4]: 2.38 ± 0.97 h
- MRT last [4]: 4.09 ± 1.19 h
- MRT inf [4]: 4.66 ± 1.52 h
- CLz [5]: 33.188 ± 4.977 mL/min/kg
- Vd [5]: 3.5486 ± 0.9901 L/kg
- CLz [6]: 46.928 ± 9.39 mL/min/kg
- Vd [6]: 5.4724 ± 0.5717 L/kg
- CLz [7]: 65.433 ± 14.71 mL/min/kg
- Vd [7]: 13,892.2 ± 7160.0 mL/kg
- time to reach maximum plasma concentration (Cmax) (rat, after oral administration of SZ–A (40, 200, 1000 mg/kg), upper bound over doses): ≤ 0.67 h
